The values that follow come from ChEMBL document CHEMBL1201862, “PubChem BioAssay data set” (2004).

Some test systems named below: SF-295; SK-MEL-2; SK-MEL-5; MCF7; SK-OV-3; MDA-N; NCI/ADR-RES; CAKI-1; SN12C; UACC-62; HCC 2998; OVCAR-3; MDA-MB-231; 786-0; SW-620; PC-3; RPMI-8226; NCI-H460; MOLT-4; SR.
What all share (assay): NCI tumour cell line growth inhibition, 48 h

Each structure is given as a SMILES string. “And” between values parts separate entries of the source, which are not always exact repeats. Equal values may be shown once.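 Results reflect a 48-hour exposure of cells in 96-well plates to compound at five concentrations. GI50 = concentration required for 50% inhibition of growth.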 The source made the active and inactive calls. No stated cut-off is given here; in the data, active = GI50 up to about 1.1 µM and inactive = higher.

Take `CCOC(=O)c1cc2c(=Cc3ccc(N(C)C)cc3)c3ccccc3n2[n+]1C`: the GI50 in the assay with SF-295 was 3.72 µM (inactive); in the assay with SK-MEL-2, 1.48 µM (inactive); in the assay with SK-MEL-5, 1.32 µM (inactive); in the assay with MCF7 it was 2.34 µM (inactive); in the assay on SK-OV-3, 3.94 µM (inactive); in the assay with MDA-N it was 1.23 µM (inactive). Also, the GI50 was > 100 µM (inactive) in the assay with NCI/ADR-RES; 1.64 µM (inactive) in the assay on CAKI-1; < 0.01 µM (active) in the assay on SN12C; 1.33 µM (inactive) with UACC-62; 1.69 µM (inactive) in the assay with HCC 2998; 0.206 µM (active) with OVCAR-3. Besides, the GI50 in the assay with MDA-MB-231 was 3.86 µM (inactive); in the assay on 786-0, 1.93 µM (inactive); with SW-620, 0.637 µM (active); in the assay on PC-3, 0.574 µM (active); with RPMI-8226, 0.301 µM (active); in the assay with NCI-H460, 2.44 µM (inactive). Also, in the assay with MOLT-4, the GI50 is 1.9 µM (inactive).

For the compound `N=C(N)N/N=C/c1c(-c2cc([N+](=O)[O-])c(Cl)cc2Cl)nc2sccn12`, the GI50 is 1.56 µM (inactive) and 1.47 µM (inactive) in the assay on SF-295; 1.91 µM (inactive) and 1 µM (active) in the assay with SK-MEL-2; 1.58 µM (inactive) and 1.35 µM (inactive) in the assay on SK-MEL-5; 1.26 µM (inactive) in the assay with MCF7; 1.83 µM (inactive) in the assay with SK-OV-3; 1.48 µM (inactive) in the assay with MDA-N. Further, the GI50 was > 100 µM (inactive) in the assay with NCI/ADR-RES; 6.27 µM (inactive) in the assay with CAKI-1; 2 µM (inactive) and 1.34 µM (inactive) in the assay on SN12C; 1.56 µM (inactive) and 1.94 µM (inactive) in the assay with UACC-62; 1.86 µM (inactive) with OVCAR-3; 200 nM (active) and 2.02 µM (inactive) in the assay on MDA-MB-231. The GI50 is 1.67 µM (inactive) with 786-0; 435 nM (active) and 1.27 µM (inactive) in the assay with SW-620; 1.45 µM (inactive) and 2.01 µM (inactive) with PC-3; 1.27 µM (inactive) and 1.75 µM (inactive) in the assay with RPMI-8226; 1.86 µM (inactive) and 1.73 µM (inactive) in the assay with NCI-H460; 0.0368 µM (active) in the assay on SR. For the same compound, the GI50 in the assay on MOLT-4 is 0.124 µM (active).

For the compound `Cc1ccc(Cl)c2[nH]c(-c3ccccc3)cc(=O)c12`, the GI50 in the assay on SF-295 is 63.5 µM (inactive); in the assay with SK-MEL-2, 65.6 µM (inactive); with SK-MEL-5, 15.8 µM (inactive); in the assay with MCF7, 3.18 µM (inactive); with SK-OV-3 it was > 100 µM (inactive); in the assay on MDA-N, 22.3 µM (inactive). Further, the GI50 in the assay on NCI/ADR-RES was 57.4 µM (inactive); in the assay with SN12C, 46.5 µM (inactive); in the assay with UACC-62, 48.2 µM (inactive); in the assay on HCC 2998, 93.1 µM (inactive); with OVCAR-3, 36.1 µM (inactive); with MDA-MB-231, 38.9 µM (inactive). Also, the GI50 in the assay with 786-0 is 90.4 µM (inactive); in the assay on SW-620 it was 39.2 µM (inactive); with PC-3, 23.3 µM (inactive); with RPMI-8226, 36.1 µM (inactive); with NCI-H460, 37 µM (inactive); in the assay on MOLT-4, 21.6 µM (inactive).

Take `S=C(c1c[nH]c2ccccc12)N1CCN(c2ccccc2)CC1`: the GI50 was 79.8 µM (inactive) with SF-295; > 100 µM (inactive) in the assay on SK-MEL-2; 80 µM (inactive) in the assay with SK-MEL-5; > 100 µM (inactive) with MCF7; > 100 µM (inactive) in the assay with SK-OV-3; > 100 µM (inactive) in the assay on MDA-N. Also, the GI50 with NCI/ADR-RES is 34.9 µM (inactive); in the assay with CAKI-1, > 100 µM (inactive); in the assay with SN12C, 21.8 µM (inactive); with UACC-62, > 100 µM (inactive); with OVCAR-3, > 100 µM (inactive); in the assay with MDA-MB-231, > 100 µM (inactive). The GI50 with 786-0 was 46.9 µM (inactive); in the assay on SW-620, > 100 µM (inactive); with PC-3, > 100 µM (inactive); in the assay with RPMI-8226, > 100 µM (inactive); in the assay with NCI-H460, > 100 µM (inactive); in the assay on SR, > 100 µM (inactive). For the same compound, in the assay on MOLT-4, the GI50 was > 100 µM (inactive).

Turning to `COc1ccc2c(Cl)cc(NC(=S)Nc3ccccc3)nc2c1`, the GI50 in the assay on SF-295 was 31.6 µM (inactive); in the assay with SK-MEL-2, 22.4 µM (inactive); in the assay on SK-MEL-5, 33.6 µM (inactive); in the assay with MCF7, 25.8 µM (inactive); in the assay with SK-OV-3 it was 26 µM (inactive); in the assay with MDA-N it was 15.4 µM (inactive). Also, the GI50 in the assay with NCI/ADR-RES is 22.3 µM (inactive); in the assay with CAKI-1 it was 35.6 µM (inactive); in the assay on SN12C it was 33.3 µM (inactive); with UACC-62 it was 17.2 µM (inactive); in the assay with OVCAR-3 it was 31.8 µM (inactive); in the assay on MDA-MB-231 it was 26.4 µM (inactive). The GI50 is 22.3 µM (inactive) in the assay with 786-0; 26.4 µM (inactive) in the assay on SW-620; 28.6 µM (inactive) in the assay with PC-3; 21.2 µM (inactive) with RPMI-8226; 32.3 µM (inactive) with NCI-H460; 26.2 µM (inactive) with SR. In addition, the GI50 in the assay with MOLT-4 is 25.2 µM (inactive).

For the compound `C=C(C)CCC1CCCCC(CN(C)C)C1=O` (centres undefined), the GI50 with SF-295 is > 100 µM (inactive); in the assay with SK-MEL-2, > 100 µM (inactive); in the assay on SK-MEL-5, > 100 µM (inactive); with MCF7, 75 µM (inactive); in the assay on SK-OV-3, > 100 µM (inactive); in the assay with MDA-N it was > 100 µM (inactive). In addition, the GI50 in the assay with NCI/ADR-RES, with CAKI-1, in the assay on SN12C, with UACC-62, with OVCAR-3 and with MDA-MB-231 was > 100 µM (inactive) in each case. For the same compound, the GI50 in the assay with 786-0, in the assay on SW-620, with PC-3, in the assay on RPMI-8226, in the assay with NCI-H460 and in the assay with SR was > 100 µM (inactive) each time. In addition, the GI50 in the assay on MOLT-4 was 31.3 µM (inactive).

For the compound `COP(=O)(OC)[C@@](O)(c1ccccc1)[C@@H](O)[C@H](O)c1ccccc1`, the GI50 is > 100 µM (inactive) with SF-295; > 100 µM (inactive) in the assay on SK-MEL-2; > 100 µM (inactive) in the assay with SK-MEL-5; 22.5 µM (inactive) in the assay with MCF7; > 100 µM (inactive) with SK-OV-3; > 100 µM (inactive) with MDA-N. The GI50 in the assay on NCI/ADR-RES, in the assay on CAKI-1, in the assay on SN12C, in the assay on UACC-62, with OVCAR-3 and in the assay with MDA-MB-231 was > 100 µM (inactive) each time. Moreover, the GI50 in the assay with 786-0 was 98.6 µM (inactive); in the assay on SW-620, 42.2 µM (inactive); in the assay with PC-3, > 100 µM (inactive); in the assay on NCI-H460 it was > 100 µM (inactive); in the assay with SR, > 100 µM (inactive); with MOLT-4, > 100 µM (inactive).

Turning to `O=C1C2=Cc3ccccc3OC2(O)Oc2cc(O)ccc21` (centres undefined), the GI50 in the assay with SF-295, in the assay on SK-MEL-2, with SK-MEL-5, in the assay with MCF7, with SK-OV-3 and with MDA-N was > 100 µM (inactive) in each case. The GI50 with NCI/ADR-RES, in the assay on CAKI-1, with SN12C, in the assay with UACC-62, in the assay on HCC 2998 and in the assay with OVCAR-3 was > 100 µM (inactive) in each case. The GI50 with MDA-MB-231, in the assay with 786-0, with SW-620, in the assay on PC-3, in the assay on RPMI-8226 and in the assay on MOLT-4 was > 100 µM (inactive) throughout.

Regarding `Cc1cc(=O)oc2c(CNC(C(=O)O)C(C)O)c(O)ccc12` (centres undefined), the GI50 with SF-295, with SK-MEL-2, with SK-MEL-5, with MCF7, with SK-OV-3 and in the assay on MDA-N was > 100 µM (inactive) throughout. In addition, the GI50 in the assay on NCI/ADR-RES, in the assay with CAKI-1, in the assay on SN12C, with UACC-62, with OVCAR-3 and in the assay on MDA-MB-231 was > 100 µM (inactive) throughout. For the same compound, the GI50 in the assay on 786-0, in the assay on SW-620, with PC-3, in the assay with RPMI-8226, in the assay with NCI-H460 and with SR was > 100 µM (inactive) throughout. In the assay with MOLT-4, the GI50 was > 100 µM (inactive).

`CC(NC(=O)c1ccccc1)(C(=O)O)C(=O)O`: the GI50 with SF-295, with SK-MEL-2, in the assay with SK-MEL-5, in the assay on MCF7, in the assay on SK-OV-3 and in the assay on MDA-N was > 100 µM (inactive) throughout. Also, the GI50 in the assay on NCI/ADR-RES, in the assay with CAKI-1, in the assay on SN12C, in the assay on UACC-62, in the assay with OVCAR-3 and in the assay on MDA-MB-231 was > 100 µM (inactive) in each case. Besides, the GI50 in the assay on 786-0, in the assay with SW-620, in the assay on PC-3, with RPMI-8226, in the assay with NCI-H460 and in the assay on SR was > 100 µM (inactive) in each case. In the assay on MOLT-4, the GI50 is > 100 µM (inactive).

For the compound `CCOP(=O)(OCC)C1CC(O)C(=O)N1` (centres undefined), the GI50 with SF-295, with SK-MEL-2, with SK-MEL-5, with MCF7, with SK-OV-3 and with MDA-N was > 100 µM (inactive) throughout. The GI50 with NCI/ADR-RES, in the assay on SN12C, with UACC-62, with OVCAR-3, in the assay with MDA-MB-231 and with 786-0 was > 100 µM (inactive) in each case. In addition, the GI50 with SW-620, in the assay with PC-3, in the assay with RPMI-8226, in the assay on SR and with MOLT-4 was > 100 µM (inactive) throughout.
